The text below walks through data of patent US6656951B2, “8-aza-bicyclo[3.2.1]octan-3-ol derivatives of 2,3-dihydro-1,4-benzodioxan as 5-HT1A antagonists” (Wyeth, priority 2001, dated 2003).

Counter-ions that a name gives are not always drawn. Like-named read-outs stand apart in the source and are kept apart here.

The target in data set [1] is T1, human 5-HT1A receptor (Homo sapiens, UniProt P08908).
T1 construct: expressed in transfected cells; membranes
T1 sequence (P08908 1-422): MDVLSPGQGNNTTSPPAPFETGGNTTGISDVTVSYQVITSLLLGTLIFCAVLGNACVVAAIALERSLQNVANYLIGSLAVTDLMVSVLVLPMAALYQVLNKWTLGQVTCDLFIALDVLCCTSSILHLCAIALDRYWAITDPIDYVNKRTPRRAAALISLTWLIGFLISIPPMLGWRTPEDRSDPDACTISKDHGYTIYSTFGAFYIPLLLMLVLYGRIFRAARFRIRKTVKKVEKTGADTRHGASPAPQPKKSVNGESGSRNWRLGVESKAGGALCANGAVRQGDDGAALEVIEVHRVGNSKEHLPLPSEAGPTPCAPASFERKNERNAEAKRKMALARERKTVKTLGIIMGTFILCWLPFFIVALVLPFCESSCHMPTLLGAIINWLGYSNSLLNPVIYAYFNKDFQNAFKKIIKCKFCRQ
Briefly: HC 5-HT1A affinity (radioligand binding, h5-HT1A.CHO cell membranes). The source says:
The 5-HT1A affinity of compounds of this invention was established in accordance with standard pharmaceutically accepted test procedures with representative compounds as follows:
Cloning of Human 5-HT1A Receptor:
The PCR cloning of the human 5-HT1A receptor subtype from a human genomic library has been described previously (Chanda et al., 1993). A stable Chinese hamster ovary cell line expressing the human 5-HT1A receptor subtype (h5-HT1A.CHO cells) was employed throughout this study. Cells were maintained in DMEM supplemented with 10% fetal calf serum, non-essential amino acids and penicillin/streptomycin.
Cells were grown to 95-100% confluency as a monolayer before membranes were harvested for binding studies. Cells were gently scraped from the culture plates, transferred to centrifuge tubes, and washed twice by centrifugation (2000 rpm for 10 min., 4° C.) in buffer (50 mM Tris; pH 7.5). The resulting pellets were aliquoted and placed at −80° C. On the day of assay, the cells were thawed on ice, and resuspended in buffer. Studies were conducted using [^3H]8-OH-DPAT as the radioligand. The binding assay was performed in 96 well microtiter plates in a final total volume of 250 μL of buffer. Competition experiments were performed by using 7 concentrations of unlabelled drug and a final ligand concentration of 1.5 nM. Non-specific binding was determined in the presence of 10 μM 5-HT. Saturation analysis was conducted by using [^3H]8-OH-DPAT at concentrations ranging from 0.3-30 nM. Following a 30 minute incubation at room temperature, the reaction was terminated by the addition of ice cold buffer and rapid filtration using a M-96 Brandel Cell Harvester (Gaithersburg, Md.) through a GF/B filter presoaked for 30 minutes in 0.5% polyethyleneimine. […]

Data set [2] addresses T2, cloned human 5-HT1A receptors (Homo sapiens, UniProt P08908).
T2 construct: expressed in transfected cells; membranes
T2 sequence (P08908 1-422): T1 sequence (P08908 1-422)
Briefly: [35S]-GTPγS binding to assess agonism/antagonism at the 5-HT1A receptor. In kind it is biochemical. The method, then:
Assessment of Agonism/Antagonism at the 5-HT1A Receptor Using [^35S]-GTPγS Binding to Cloned Human 5-HT1A Receptors:
The [^35S]-GTPγS binding assay was similar to that used by Lazareno and Birdsall (Br. J. Pharmacol. 1993, 109, 1120). Briefly, 5-HT1A cloned receptor membrane fragments (as used for 5-HT1A receptor binding assays) were stored at −70° C. until needed. When needed, membranes were rapidly thawed, centrifuged at 40,000×g for 10 minutes and resuspended at 4° C. for 10 minutes in assay buffer (25 mM HEPES, 3 mM MgCl2, 100 mM NaCl, 1 mM EDTA, 10 uM GDP, […], pH 8.0). These membranes were then incubated for 30 min at 30° C. with [^35S]GTPgS (1 nM) in the presence of vehicle, test compound (one to eight concentrations), or excess 8-OH-DPAT to define maximum agonist response. All reactions are terminated by the addition of ice cold Tris buffer followed by rapid filtration using a Tom Tech® filtration device to separate bound from free [ ^35S]GTPgS. Agonists produce an increase in the amount of [^35S]GTPgS bound whereas antagonists produce no increase in binding. Bound radioactivity was counted and analyzed as above.
On the technique in general: GTPγS is a poorly hydrolysed GTP analogue; its binding reports G protein activation.

For data set [3] the following is noted: two-platform spatial discrimination task; cited from earlier work.
In data set [4] the test system is rats. The note with it: delayed nonmatching to sample radial arm maze task; cited from earlier work.
The conditions of data set [5]: post-training administration, autoshaping learning task; cited from earlier work.
Setting [6] is: n=1, cloned human 5-HT1A receptor membranes.
Where [7] appears, read: n=2, membranes of CHO cells expressing human 5-HT1A, read-out: HC 5-HT1A affinity Ki.
Setting [8] is: n=1, cloned human 5-HT1A receptor membranes, read-out: [35S]GTPgS IC50.

One may read the Ki as the dissociation constant of the complex between target and ligand, obtained from inhibition or displacement. Usually IC50 stands for the concentration at which inhibition is half-maximal. The melting point is the temperature, or range, at which the solid turns liquid. `COc1cccc2c1O[C@@H](CN1C3CCC1CC(O)(c1ccc4ccccc4c1)C3)CO2` (stereo partly drawn) [Example 11] gave a melting point of 129 to 132 °C. This molecule also returned a Ki in data set [1] of 0.81 nM. Besides, the IC50 in data set [2] is 9.9 nM. Besides, the “[35S]GTPgS Imax” value in data set [2] (setting [6]) worked out at 100%.

The molecule `COc1cccc2c1O[C@@H](CN1C3CCC1CC(O)(c1ccccc1)C3)CO2` (stereo partly drawn) [Example 10, 8-{[(2S)-8-Methoxy-2,3-dihydro-1,4-benzodioxin-2-yl]methyl}-3-phenyl-8-azabicyclo[3.2.1]octan-3-ol] gave a melting point of 113 to 115 °C. This molecule registered a Ki in data set [1] of 1.53 nM. Also, the IC50 in data set [2] turned out to be 25 nM. For the same molecule, in data set [2] (setting [6]), the “[35S]GTPgS Imax” value is on record as 100%.

As to `COc1cccc2c1O[C@@H](CN1C3CCC1CC(O)(c1cccc(C(F)(F)F)c1)C3)CO2` (stereo partly drawn) [Example 7, 8-{[(2S)-8-Methoxy-2,3-dihydro-1,4-benzodioxin-2-yl]methyl}-3-[3-(trifluoromethyl)phenyl]-8-azabicyclo[3.2.1]octan-3-ol], the melting point fell in the range of 104 to 107 °C. In data set [1] (setting [7]), the Ki worked out at 0.33 nM.

In turn, `CCOc1cccc2c1O[C@@H](CN1C3CCC1CC(O)(c1csc4ccccc14)C3)CO2` (stereo partly drawn) [Example 3, (S)-3-Benzo[b]thiophen-3-yl-8-(8-ethoxy-2,3-dihydro-benzo[1,4]dioxin-2-ylmethyl)-8-aza-bicyclo[3.2.1]octan-3-ol] returned a melting point of 111 to 114 °C. Besides, in data set [1] (setting [7]), the Ki is 16.7 nM.

Molecule `CCOc1cccc2c1O[C@@H](CN1C3CCC1CC(O)(c1ccccc1)C3)CO2` (stereo partly drawn) [Example 2, (S)-8-(8-Ethoxy-2,3-dihydro-benzo[1,4]dioxin-2-ylmethyl)-3-phenyl-8-aza-bicyclo[3.2.1]octan-3-ol] came in with a melting point of 152 to 155 °C. The Ki in data set [1] (setting [7]) turned out to be 3.1 nM.

Molecule `COc1cccc2c1O[C@@H](CN1C3CCC1CC(O)(c1csc4ccccc14)C3)CO2` (stereo partly drawn) [Example 9, 3-(1-Benzothien-3-yl)-8-{[(2S)-8-methoxy-2,3-dihydro-1,4-benzodioxin-2-yl]methyl}-8-azabicyclo[3.2.1]octan-3-ol] returned a melting point of 162 to 164 °C. Moreover, in data set [1] (setting [7]), the inhibition constant Ki turned out to be 1.6 nM. For the same molecule, the “[35S]GTPgS Imax” value in data set [2] (setting [6]) was 100%. In addition, the 50% inhibitory concentration (IC50) in data set [2] (setting [8]) stood at 36 nM.

In turn, `COc1ccccc1C1(O)CC2CCC(C1)N2C[C@H]1COc2cccc(OC)c2O1` (stereo partly drawn) [Example 6, 8-{[(2S)-8-Methoxy-2,3-dihydro-1,4-benzodioxin-2-yl]methyl}-3-(2-methoxyphenyl)-8-azabicyclo[3.2.1]octan-3-ol] returned a melting point of 176 to 178 °C. Also, in data set [1] (setting [7]), the Ki was 39 nM.

For the molecule `COc1cccc2c1O[C@@H](CN1C3CCC1CC(O)(c1ccccn1)C3)CO2` (stereo partly drawn) [Example 8, 8-{[(2S)-8-Methoxy-2,3-dihydro-1,4-benzodioxin-2-yl]methyl}-3-(2-pyridinyl)-8-azabicyclo[3.2.1]octan-3-ol], the melting point is 107 to 110 °C (dec.). The Ki in data set [1] (setting [7]) is 46 nM. Also, in data set [2] (setting [6]), the “[35S]GTPgS Imax” value is 100%. The IC50 in data set [2] (setting [8]) is 1480 nM.

Consider `COc1ccccc1N1CCN(CCN(C(=O)C2CCCCC2)c2ccccn2)CC1` [WAY-100635], for which the “effect on impairment of spatial learning caused by intrahippocampal injection of CPP” value in data set [3] is on record as “prevented the impairment of spatial learning”. Besides, in data set [4], the “effect on cognitive impairment induced by MK801” value is listed as “significantly reduced the cognitive impairment”. In data set [5], the “effect on learning deficit induced by scopolamine” value was “reversed the learning deficit”.

The molecule `CCOc1cccc2c1O[C@@H](CN1C3CCC1CC(O)(c1cccc(C(F)(F)F)c1)C3)CO2` (stereo partly drawn) [Example 5, 8-{[(2S)-8-Ethoxy-2,3-dihydro-benzo[1,4]dioxin-2-yl]methyl)-3-(3-trifluoromethylphenyl)-8-aza-bicyclo[3.2.1]octan-3-ol] had a melting point of 86 to 90 °C. Also, in data set [1] (setting [7]), the Ki turned out to be 2.9 nM.

Regarding `CCOc1cccc2c1O[C@@H](CN1C3CCC1CC(O)(c1ccc4ccccc4c1)C3)CO2` (stereo partly drawn) (as salt: oxalate) [Example 1, (S)-8-(8-Ethoxy-2,3-dihydro-benzo[1,4]dioxin-2-ylmethyl)-3-naphthalen-2-yl-8-aza-bicyclo[3.2.1]octan-3-ol], the melting point lay within 126 to 129 °C.

Turning to `CCOc1cccc2c1O[C@@H](CN1C3CCC1CC(O)(c1ccc4ccccc4c1)C3)CO2` (stereo partly drawn) [Example 1, (S)-8-(8-Ethoxy-2,3-dihydro-benzo[1,4]dioxin-2-ylmethyl)-3-naphthalen-2-yl-8-aza-bicyclo[3.2.1]octan-3-ol], in data set [1] (setting [7]), the Ki is 5.9 nM.

The molecule `CCOc1cccc2c1O[C@@H](CN1C3CCC1CC(O)(c1ccccn1)C3)CO2` (stereo partly drawn) [Example 4, 8-{[(2S)-8-Ethoxy-2,3-dihydro-benzo[1,4]dioxin-2-yl]methyl)-3-pyridin-2-yl-8-aza-bicyclo[3.2.1]octan-3-ol] registered a melting point of 95 to 99 °C. Moreover, the Ki in data set [1] (setting [7]) turned out to be 61.6 nM.
